Measurements taken from patent publication EP0054589B1, “Organic phosphoric acid ester derivatives, a process for preparing the same and insecticidal, miticidal or nematocidal compositions containing the same” (priority 1980, dated 1982).
Read-outs that look alike come from different tables or passages of the source.

Legend:
tobacco cutworm [1] = test: Insecticidal effect on tobacco cutworm (cabbage leaf dip); assay type: in vivo, Prodenia litura; settings: after 48 hours, 25°C
Summary of the method: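 Cabbage leaves dipped in water-diluted emulsifiable concentrate (two formulations, tests A and B) and air-dried were fed to 3rd-instar tobacco cutworm larvae at 25°C. Percent mortality scored after 48 hours; 3 replicates of 30 insects per compound.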

tobacco cutworm [2] = test: Long-lasting insecticidal effect on tobacco cutworm (sprayed cabbage plantlet); assay type: in vivo, Prodenia litura; settings: concentration 500 (unit not given), mortality after 48 hours; for Percent Mortality After Application 3rd Day: leaves cut on 3rd day; for Percent Mortality After Application 5th Day: leaves cut on 5th day; for Percent Mortality After Application 7th Day: leaves cut on 7th day; for Percent Mortality After Application 10th Day: leaves cut on 10th day; for Percent Mortality After Application 15th Day: leaves cut on 15th day
Summary of the method: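 Cabbage plantlets sprayed with water-diluted emulsifiable concentrate and held in a greenhouse; leaves cut on days 3, 5, 7, 10 and 15 and fed to 3rd-instar larvae at 25°C. Percent mortality scored after 48 h; 3 replicates, 30 insects each.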

apple leaf miner = test: Insecticidal effect on apple leaf miner (sprayed apple seedling); assay type: in vivo, Lithocolletis ringoniella; settings: Phyllonorycter ringoniella, 336 h, 500 ppm, fourteen days after spraying
Summary of the method: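 Wettable-powder suspensions were sprayed onto potted apple seedlings infested with newly hatched leaf miner larvae, then kept in a greenhouse.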

carmine mites = test: Miticidal effect on carmine mite (sprayed kidney bean seedling); assay type: in vivo, Tetranychus cinnabarius; settings: 500 ppm
Procedure: An emulsifiable concentrate prepared as described in Formulation Example 1 and diluted to a predetermined concentration was sprayed using a spray-gun on a seedling of a kidney bean placed in a pot of 12 cm in diameter to which plant carmine mites were parasitic. After drying in air, seedlings were kept in a green house, and the number of living insects was recorded on the 7th, 14th, 21st and 28th day from the day of application to determine the control effects. Three pots were used for each treatment. The control effect was assessed by the following formula: [formula] • wherein Σ indicates sum and Cb, Tb, Cai and Tai have the following meanings. • Cb: Number of living mites in non-treated sample before application. • Tb: Number of living mites in treated sample before application. • Cai: Number of living mites in non-treated sample 7th, 14th, 21 st or 28th day from the application. • Tai: Number of living mites in treated sample 7th, 14th, 21st or 28th day from the application.

Apple = test: Phytotoxicity on various crops; assay type: in vivo; design: key: Symbol — indicates that no toxicity was observed; settings: 500 ppm sprayed; checked visually after 10 days
Summary of the method: (§1)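 Damage is judged visually 10 days after foliar spraying. Each compound is applied as a water-diluted emulsifiable concentrate at 500 ppm effective ingredient, with plants kept in a greenhouse and three replicates run.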

Beet = test: Phytotoxicity on various crops; assay type: in vivo; design: key: Symbol — indicates that no toxicity was observed; settings: 500 ppm sprayed; checked visually after 10 days
Summary of the method: as §1

Cabbage = test: Phytotoxicity on various crops; assay type: in vivo; design: key: Symbol — indicates that no toxicity was observed; settings: 500 ppm sprayed; checked visually after 10 days
Summary of the method: as §1

Cotton = test: Phytotoxicity on various crops; assay type: in vivo; design: key: Symbol — indicates that no toxicity was observed; settings: 500 ppm sprayed; checked visually after 10 days
Summary of the method: as §1

Cucumber = test: Phytotoxicity on various crops; assay type: in vivo; design: key: Symbol — indicates that no toxicity was observed; settings: 500 ppm sprayed; checked visually after 10 days
Summary of the method: as §1

Green Pepper = test: Phytotoxicity on various crops; assay type: in vivo; design: key: Symbol — indicates that no toxicity was observed; settings: 500 ppm sprayed; checked visually after 10 days
Summary of the method: as §1

Kidney Bean = test: Phytotoxicity on various crops; assay type: in vivo; design: key: Symbol — indicates that no toxicity was observed; settings: 500 ppm sprayed; checked visually after 10 days
Summary of the method: as §1

Rice = test: Phytotoxicity on various crops; assay type: in vivo; design: key: Symbol — indicates that no toxicity was observed; settings: 500 ppm sprayed; checked visually after 10 days
Summary of the method: as §1

Tea = test: Phytotoxicity on various crops; assay type: in vivo; design: key: Symbol — indicates that no toxicity was observed; settings: 500 ppm sprayed; checked visually after 10 days
Summary of the method: as §1

Tomato = test: Phytotoxicity on various crops; assay type: in vivo; design: key: Symbol — indicates that no toxicity was observed; settings: 500 ppm sprayed; checked visually after 10 days
Summary of the method: as §1

egg plant = test: Phytotoxicity on various crops; assay type: in vivo; design: key: Symbol — indicates that no toxicity was observed; settings: 500 ppm sprayed; checked visually after 10 days
Summary of the method: as §1

[3] = Table 3, 500 ppm, emulsifiable concentrate as Formulation Example 1
[4] = Table 10, wettable powder as Formulation Example 5, read-out: Percent Morality (%)

## CCCSP(=O)(OC)Oc1ccc2c(c1)OC(C)=CC2(C)C (stereo not shown) [Compound No. 1]
Tobacco cutworm [1]; [3]
  Percent Mortality (%): 100%
Tobacco cutworm [2]; Table 5
  Percent Mortality After Application 3rd Day: 100%
  Percent Mortality After Application 5th Day: 100%
  Percent Mortality After Application 7th Day: 100%
  Percent Mortality After Application 10th Day: 100%
  Percent Mortality After Application 15th Day: 100%
Apple leaf miner; [4]
  mortality at 500 ppm: 100%
Carmine mites
  Control Effect (%): 99.6%
  Number of Living Mites after Application 7th Day: 0
  Number of Living Mites after Application 14th Day: 0
  Number of Living Mites after Application 21st Day: 0
  Number of Living Mites after Application 28th Day: 3
Apple
  Phytotoxicity: Apple: —
Beet
  Phytotoxicity: Beet: —
Cabbage
  Phytotoxicity: Cabbage: —
Cotton
  Phytotoxicity: Cotton: —
Cucumber
  Phytotoxicity: Cucumber: —
Green Pepper
  Phytotoxicity: Green Pepper: —
Kidney Bean
  Phytotoxicity: Kidney Bean: —
Rice
  Phytotoxicity: Rice: —
Tea
  Phytotoxicity: Tea: —
Tomato
  Phytotoxicity: Tomato: —
Egg plant
  Phytotoxicity: Egg Plant: —

## CCCSP(=O)(OCC)Oc1ccc2c(c1)OC(C)=CC2(C)C (stereo not shown) [Compound No. 2, O-ethyl-S-propyl-O-(2,4,4-trimethyl-1,4-benzopyran-7-yl)phosphorothioate]
Tobacco cutworm [1]; [3]
  Percent Mortality (%): 100%
Tobacco cutworm [2]; Table 5
  Percent Mortality After Application 3rd Day: 100%
  Percent Mortality After Application 5th Day: 100%
  Percent Mortality After Application 7th Day: 100%
  Percent Mortality After Application 10th Day: 100%
  Percent Mortality After Application 15th Day: 100%
Apple leaf miner; [4]
  mortality at 500 ppm: 100%
Carmine mites
  Control Effect (%): 99.0%
  Number of Living Mites after Application 7th Day: 0
  Number of Living Mites after Application 14th Day: 0
  Number of Living Mites after Application 21st Day: 0
  Number of Living Mites after Application 28th Day: 11
Apple
  Phytotoxicity: Apple: —
Beet
  Phytotoxicity: Beet: —
Cabbage
  Phytotoxicity: Cabbage: —
Cotton
  Phytotoxicity: Cotton: —
Cucumber
  Phytotoxicity: Cucumber: —
Green Pepper
  Phytotoxicity: Green Pepper: —
Kidney Bean
  Phytotoxicity: Kidney Bean: —
Rice
  Phytotoxicity: Rice: —
Tea
  Phytotoxicity: Tea: —
Tomato
  Phytotoxicity: Tomato: —
Egg plant
  Phytotoxicity: Egg Plant: —

## CCCSP(=S)(OC)Oc1ccc2c(c1)OC(C)=CC2(C)C (stereo not shown) [Compound No. 9, 0-methyl-S-propyl-(2,4,4-trimethyl-1,4-benzopyran-7-yl)phosphorodithioate]
Tobacco cutworm [1]; [3]
  Percent Mortality (%): 100%
Tobacco cutworm [2]; Table 5
  Percent Mortality After Application 3rd Day: 100%
  Percent Mortality After Application 5th Day: 100%
  Percent Mortality After Application 7th Day: 100%
  Percent Mortality After Application 10th Day: 100%
  Percent Mortality After Application 15th Day: 93.3%
Apple leaf miner; [4]
  mortality at 500 ppm: 100%
Carmine mites
  Control Effect (%): 99.0%
  Number of Living Mites after Application 7th Day: 0
  Number of Living Mites after Application 14th Day: 0
  Number of Living Mites after Application 21st Day: 0
  Number of Living Mites after Application 28th Day: 8
Apple
  Phytotoxicity: Apple: —
Beet
  Phytotoxicity: Beet: —
Cabbage
  Phytotoxicity: Cabbage: —
Cotton
  Phytotoxicity: Cotton: —
Cucumber
  Phytotoxicity: Cucumber: —
Green Pepper
  Phytotoxicity: Green Pepper: —
Kidney Bean
  Phytotoxicity: Kidney Bean: —
Rice
  Phytotoxicity: Rice: —
Tea
  Phytotoxicity: Tea: —
Tomato
  Phytotoxicity: Tomato: —
Egg plant
  Phytotoxicity: Egg Plant: —

## CCCSP(=S)(OCC)Oc1ccc2c(c1)OC(C)=CC2(C)C (stereo not shown) [Compound No. 10]
Tobacco cutworm [1]; [3]
  Percent Mortality (%): 100%
Tobacco cutworm [2]; Table 5
  Percent Mortality After Application 3rd Day: 100%
  Percent Mortality After Application 5th Day: 100%
  Percent Mortality After Application 7th Day: 100%
  Percent Mortality After Application 10th Day: 100%
  Percent Mortality After Application 15th Day: 96.7%
Apple leaf miner; [4]
  mortality at 500 ppm: 100%
Carmine mites
  Control Effect (%): 97.6%
  Number of Living Mites after Application 7th Day: 0
  Number of Living Mites after Application 14th Day: 0
  Number of Living Mites after Application 21st Day: 2
  Number of Living Mites after Application 28th Day: 19
Apple
  Phytotoxicity: Apple: —
Beet
  Phytotoxicity: Beet: —
Cabbage
  Phytotoxicity: Cabbage: —
Cotton
  Phytotoxicity: Cotton: —
Cucumber
  Phytotoxicity: Cucumber: —
Green Pepper
  Phytotoxicity: Green Pepper: —
Kidney Bean
  Phytotoxicity: Kidney Bean: —
Rice
  Phytotoxicity: Rice: —
Tea
  Phytotoxicity: Tea: —
Tomato
  Phytotoxicity: Tomato: —
Egg plant
  Phytotoxicity: Egg Plant: —

## CCCSP(=O)(OCC)Oc1ccc2c(c1)OC(C)(C)C=C2C (stereo not shown) [Compound No. 20, O-ethyl-S-propyl-0-(2,2,4-trimethyl-1,2-benzopyran-7-yl)phosphorothioate]
Tobacco cutworm [1]; [3]
  Percent Mortality (%): 100%
Tobacco cutworm [1]; Table 4, 100 ppm, emulsifiable concentrate as Formulation Example 3
  Percent Mortality (%): 100%
Tobacco cutworm [2]; Table 5
  Percent Mortality After Application 3rd Day: 100%
  Percent Mortality After Application 5th Day: 100%
  Percent Mortality After Application 7th Day: 100%
  Percent Mortality After Application 10th Day: 100%
  Percent Mortality After Application 15th Day: 33.3%
Tobacco cutworm [2]; Table 6
  Percent Mortality After Application 3rd Day: 100%
  Percent Mortality After Application 5th Day: 100%
  Percent Mortality After Application 7th Day: 100%
  Percent Mortality After Application 10th Day: 90.0%
  Percent Mortality After Application 15th Day: 46.7%
  Percent Mortality After Application Immediately after Application: 100%
Apple leaf miner; [4]
  mortality at 500 ppm: 100%
Apple leaf miner; Table 11, wettable powder as Formulation Example 7, read-out: Percent Mortality (%)
  mortality at 500 ppm: 96.6%
Apple
  Phytotoxicity: Apple: —
Beet
  Phytotoxicity: Beet: —
Cabbage
  Phytotoxicity: Cabbage: —
Cotton
  Phytotoxicity: Cotton: —
Cucumber
  Phytotoxicity: Cucumber: —
Green Pepper
  Phytotoxicity: Green Pepper: —
Kidney Bean
  Phytotoxicity: Kidney Bean: —
Rice
  Phytotoxicity: Rice: —
Tea
  Phytotoxicity: Tea: —
Tomato
  Phytotoxicity: Tomato: —
Egg plant
  Phytotoxicity: Egg Plant: —
